Key:
T47D = test: Growth inhibition of human T47D cells at 10 uM after 48 hrs by sulforhodamine B assay; type: functional; details: read-out: GI
[1] = Growth inhibition of human NCI-ADR-RES cells at 10 uM after 48 hrs by sulforhodamine B assay; type: functional; details: read-out: GI
LOX IMVI = test: Growth inhibition of human LOXIMVI cells at 10 uM after 48 hrs by sulforhodamine B assay; type: functional; details: read-out: GI
SNB-75 = test: Growth inhibition of human SNB75 cells at 10 uM after 48 hrs by sulforhodamine B assay; type: functional; details: SNB-75, 48 h, read-out: GI
UO-31 = test: Growth inhibition of human UO31 cells at 10 uM after 48 hrs by sulforhodamine B assay; type: functional; details: UO-31, 48 h, read-out: GI
CCRF-CEM = test: Growth inhibition of human CCRF-CEM cells at 10 uM after 48 hrs by sulforhodamine B assay; type: functional; details: read-out: GI
HOP-92 = test: Growth inhibition of human HOP92 cells at 10 uM after 48 hrs by sulforhodamine B assay; type: functional; details: HOP-92, 48 h, read-out: GI
MDA-MB-468 = test: Growth inhibition of human MDA-MB-468 cells at 10 uM after 48 hrs by sulforhodamine B assay; type: functional; details: MDA-MB-468, 48 h, read-out: GI
MCF7 = test: Growth inhibition of human MCF7 cells at 10 uM after 48 hrs by sulforhodamine B assay; type: functional; details: MCF7, 48 h, read-out: GI
PC-3 = test: Growth inhibition of human PC3 cells at 10 uM after 48 hrs by sulforhodamine B assay; type: functional; details: PC-3, 48 h, read-out: GI
Malme-3M = test: Growth inhibition of human MALME-3M cells at 10 uM after 48 hrs by sulforhodamine B assay; type: functional; details: read-out: GI
UACC-62 = test: Growth inhibition of human UACC62 cells at 10 uM after 48 hrs by sulforhodamine B assay; type: functional; details: UACC-62, 48 h, read-out: GI
SR = test: Growth inhibition of human SR cells at 10 uM after 48 hrs by sulforhodamine B assay; type: functional; details: read-out: GI
COLO 205 = test: Growth inhibition of human COLO205 cells at 10 uM after 48 hrs by sulforhodamine B assay; type: functional; details: COLO 205, 48 h, read-out: GI
MOLT-4 = test: Growth inhibition of human MOLT4 cells at 10 uM after 48 hrs by sulforhodamine B assay; type: functional; details: MOLT-4, 48 h, read-out: GI
A498 = test: Growth inhibition of human A498 cells at 10 uM after 48 hrs by sulforhodamine B assay; type: functional; details: A498, 48 h, read-out: GI
HL-60(TB) = test: Growth inhibition of human HL-60(TB) cells at 10 uM after 48 hrs by sulforhodamine B assay; type: functional; details: HL-60, 48 h, read-out: GI
786-0 = test: Growth inhibition of human 786-0 cells at 10 uM after 48 hrs by sulforhodamine B assay; type: functional; details: 786-0, 48 h, read-out: GI
SK-MEL-5 = test: Growth inhibition of human SK-MEL-5 cells at 10 uM after 48 hrs by sulforhodamine B assay; type: functional; details: SK-MEL-5, 48 h, read-out: GI
HOP-62 = test: Growth inhibition of human HOP62 cells at 10 uM after 48 hrs by sulforhodamine B assay; type: functional; details: HOP-62, 48 h, read-out: GI
NCI-H522 = test: Growth inhibition of human NCI-H522 cells at 10 uM after 48 hrs by sulforhodamine B assay; type: functional; details: NCI-H522, 48 h, read-out: GI
Ovis aries = species: Ovis aries; test: Inhibition of sheep brain tubulin polymerization at 100 uM using DAPI by fluorimetry
HCT-116 = test: Growth inhibition of human HCT116 cells at 10 uM after 48 hrs by sulforhodamine B assay; type: functional; details: HCT-116, 48 h, read-out: GI
MDA-MB-231 = test: Growth inhibition of human MDA-MB-231 cells at 10 uM after 48 hrs by sulforhodamine B assay; type: functional; details: MDA-MB-231, 48 h, read-out: GI
SF-295 = test: Growth inhibition of human SF295 cells at 10 uM after 48 hrs by sulforhodamine B assay; type: functional; details: SF-295, 48 h, read-out: GI
MDA-MB-435 = test: Growth inhibition of human MDA-MB-435 cells at 10 uM after 48 hrs by sulforhodamine B assay; type: functional; details: MDA-MB-435, 48 h, read-out: GI
RPMI-8226 = test: Growth inhibition of human RPMI8226 cells at 10 uM after 48 hrs by sulforhodamine B assay; type: functional; details: RPMI-8226, 48 h, read-out: GI
KM12 = test: Growth inhibition of human KM12 cells at 10 uM after 48 hrs by sulforhodamine B assay; type: functional; details: KM12, 48 h, read-out: GI
K562 = test: Growth inhibition of human K562 cells at 10 uM after 48 hrs by sulforhodamine B assay; type: functional; details: K562, 48 h, read-out: GI
RXF 393 = test: Growth inhibition of human RXF393 cells at 10 uM after 48 hrs by sulforhodamine B assay; type: functional; details: RXF 393, 48 h, read-out: GI
OVCAR-4 = test: Growth inhibition of human OVCAR4 cells at 10 uM after 48 hrs by sulforhodamine B assay; type: functional; details: OVCAR-4, 48 h, read-out: GI
CAKI-1 = test: Growth inhibition of human CAKI-1 cells at 10 uM after 48 hrs by sulforhodamine B assay; type: functional; details: CAKI-1, 48 h, read-out: GI
HCT-15 = test: Growth inhibition of human HCT15 cells at 10 uM after 48 hrs by sulforhodamine B assay; type: functional; details: HCT-15, 48 h, read-out: GI

Row | SMILES | inhibition of growth at 10 µM (T47D) | inhibition of growth at 10 µM [1] | inhibition of growth at 10 µM (LOX IMVI) | inhibition of growth at 10 µM (SNB-75) | inhibition of growth at 10 µM (UO-31) | inhibition of growth at 10 µM (CCRF-CEM) | inhibition of growth at 10 µM (HOP-92) | inhibition of growth at 10 µM (MDA-MB-468) | inhibition of growth at 10 µM (MCF7) | inhibition of growth at 10 µM (PC-3) | inhibition of growth at 10 µM (Malme-3M) | inhibition of growth at 10 µM (UACC-62) | inhibition of growth at 10 µM (SR) | inhibition of growth at 10 µM (COLO 205) | inhibition of growth at 10 µM (MOLT-4) | inhibition of growth at 10 µM (A498) | inhibition of growth at 10 µM (HL-60(TB)) | inhibition of growth at 10 µM (786-0) | inhibition of growth at 10 µM (SK-MEL-5) | inhibition of growth at 10 µM (HOP-62) | further results
1 | O=C(c1cc2cc(F)ccc2[nH]1)N1c2ccccc2Sc2ccccc21 | 10.1% | 15.6% | 33.6% | 20.6% | 21.6% | 10.1% | 4.2% | 11.6% | 3.4% | 44.7% | 3.9% | 25.6% | 56.9% | 0% | 31.8% | 19.1% | 1.3% | 11.2% | 24.5% | 20.6% | inhibition of growth at 10 µM (NCI-H522): 0%; inhibition (Ovis aries): 32%; inhibition of growth at 10 µM (HCT-116): 46.1%; inhibition of growth at 10 µM (MDA-MB-231): 23.8%; inhibition of growth at 10 µM (SF-295): 5.7%; inhibition of growth at 10 µM (MDA-MB-435): 3.2%; inhibition of growth at 10 µM (RPMI-8226): 5.8%; inhibition of growth at 10 µM (KM12): 1.7%; inhibition of growth at 10 µM (K562): 34.6%; inhibition of growth at 10 µM (RXF 393): 7.7%; inhibition of growth at 10 µM (OVCAR-4): 14.8%; inhibition of growth at 10 µM (CAKI-1): 17.3%; inhibition of growth at 10 µM (HCT-15): 45.8%
2 | CC(=O)c1cn(C(=O)N2c3ccccc3Sc3ccccc32)c2ccccc12 | 25.1% | 4.9% | 9% | 6% | 24.2% | 7.2% | 24.9% | 14% | 0% | 18.3% | 7.6% | 16% | 31.4% | 1.6% | 16.9% | 1.3% | 16.5% | 6.7% | 8.5% | 13.3% | inhibition of growth at 10 µM (NCI-H522): 17%; inhibition of growth at 10 µM (HCT-116): 6.8%; inhibition of growth at 10 µM (MDA-MB-231): 0%; inhibition of growth at 10 µM (SF-295): 0.9%; inhibition of growth at 10 µM (MDA-MB-435): 3%; inhibition of growth at 10 µM (RPMI-8226): 35.5%; inhibition of growth at 10 µM (KM12): 6.6%; inhibition of growth at 10 µM (K562): 26.2%; inhibition of growth at 10 µM (RXF 393): 7%; inhibition of growth at 10 µM (OVCAR-4): 0%; inhibition of growth at 10 µM (CAKI-1): 14%; inhibition of growth at 10 µM (HCT-15): 8.4%

From ChEMBL document CHEMBL2331144, “Synthesis and anticancer activity of analogues of phenstatin, with a phenothiazine A-ring, as a new class of microtubule-targeting agents” (Bioorg Med Chem Lett, 2013)
